Results published in patent US6407125B1, “Pharmacological agent and method of treatment” (Novactyl, Inc., priority 1995, dated 2002).

Tests used:
WI-38 cells [1] = experiment: Growth of WI-38 cells (total cell protein, cell number); type: cell-based; settings: for Monolayer Protein: WI-38, fusaric acid 0.5 mM
Description: (§1) Cells were plated at 1.5×10^5 cells/60-mm dish; 48 hours later, the medium was removed, and new media with or without 3 mM picolinic acid was added. Total cell protein was determined at the indicated times; each point is the average of triplicate measurements from 2 cultures.
(§2) In initial experiments to examine the effects of fusaric acid on cell growth and viability, WI-38 and LoVo cells were incubated for 24 to 72 hours in medium with or without various doses of fusaric acid (0.1-1 mM). The growth of both WI-38 and LoVo cells was inhibited by 500 μM fusaric acid in a time and dose dependent manner, as shown below in Table 2.

WI-38 cells [2] = experiment: Viability of WI-38 cells (trypan blue exclusion); type: cell-based; settings: 500 μM fusaric acid
Description: To examine WI-38 cell viability in greater detail, the effects of fusaric acid were studied in logarithmically growing and contact inhibited confluent cells (Tables 2 and 3). In logarithmically growing WI-38 cells approximately 76% of the cells were viable after 30 hours of treatment with fusaric acid. When the cells were treated for 78 hours, only 26% of the cell population survived the pronounced cytotoxic actions of fusaric acid.

LoVo cells [3] = experiment: Growth of LoVo cells (total cell protein, cell number, DNA synthesis); type: cell-based, human; settings: for Monolayer Protein: fusaric acid 0.5 mM
Description: as §1, §2
After 30 hours of treatment with 500 μM fusaric acid, there was a prominent decrease in cell number. DNA synthesis was completely (100%) inhibited by 24 hours. When treated with 500 μM fusaric acid, the majority of the LoVo cells acquired a rounded morphology by 48 hours.
However, after 100 hours, an increase in cell number was noted after 25 additional hours.

LoVo cells [4] = experiment: Viability of LoVo cells (trypan blue exclusion); type: cell-based, human; settings: 500 μM fusaric acid
Description: As in the case of WI-38, LoVo cell viability after fusaric acid treatment was investigated in logarithmically growing and confluent cells, as shown in Tables 2 and 3. In logarithmically growing LoVo cells, approximately 38% of the attached cells were viable after 30 hours of treatment with fusaric acid. When the cells were treated for 78 hours, only 4.5% of the cell population survived the pronounced cytotoxic actions of fusaric acid. […] Thus, LoVo cells are much more sensitive to the cytotoxic actions of fusaric acid in both growing and confluent population of cells in comparison to normal WI-38 cells.

KB cells [5] = experiment: Growth of KB cells; type: cell-based, human; settings: 48 hours in 500 μM
KB cells [6] = experiment: Viability of KB cells (trypan blue exclusion); type: cell-based, human; settings: 500 μM fusaric acid
Description: To examine KB cell viability in greater detail, the effects of fusaric acid were studied in logarithmically growing and confluent cells. In logarithmically growing KB cells 70% of the cells were viable after 48 hours in 500 μtM fusaric acid. […] Thus, in contrast to LoVo cells, a significant proportion of the population of growing (70%) cells and virtually all (95%) of confluent KB cells resisted the pronounced cytotoxic action of fusaric acid (See Tables 3 and 4, above).

[7] = test system: human breast adenocarcinoma MDA-468 cell; experiment: Growth of MDA-468 cells (cell number, DNA synthesis); type: cell-based; settings: MDA-468, 500 μM fusaric acid
Description: After 12-24 hours of treatment with 500 μM fusaric acid, there was no further increase in cell number. […] These floating cells were not viable. Within 30 hours of treatment there was a 65% decrease in cell number. […] After 96 hours, less than 10% of the original population remained attached to the dish and no change in cell number was noted after one additional week.

MDA-468 cells = type: cell-based, human
Description: As in the case of WI-38, MDA-468 cell viability after fusaric acid treatment was investigated in logarithmically growing and confluent cells. In logarithmically growing MDA-468 cells, less than 20% of the attached cells were viable after 30 hours of treatment with fusaric acid. When the cells were treated for 48 hours, only 0.1% of the cell population survived the pronounced cytotoxic actions of fusaric acid. […] Thus, MDA-468 cells are extremely sensitive to the cytotoxic actions of fusaric acid in both growing and confluent population of cells in comparison to normal WI-38 lines studied.

Prostatic adenocarcinoma = experiment: Viability of other human carcinoma cell types; type: cell-based; settings: 48 hours of treatment
Description: (§3) As in previous examples, the following human cell lines were inhibited by similar concentrations of fusaric acid: Prostatic adenocarcinoma, skin carcinoma, colon carcinoma, liver adenocarcinoma and lung adenocarcinoma. For all these cell types, cell viability decreased by approximately 60% after 48 hours of treatment with fusaric acid.

colon carcinoma = experiment: Viability of other human carcinoma cell types; type: cell-based; settings: 48 hours of treatment
Description: as §3

liver adenocarcinoma = experiment: Viability of other human carcinoma cell types; type: cell-based; settings: 48 hours of treatment
Description: as §3

lung adenocarcinoma = experiment: Viability of other human carcinoma cell types; type: cell-based; settings: 48 hours of treatment
Description: as §3

skin carcinoma = experiment: Viability of other human carcinoma cell types; type: cell-based; settings: 48 hours of treatment
Description: as §3

CCCCc1ccc(C(=O)O)nc1 [fusaric acid]
Monolayer Protein (WI-38 cells [1]; 24 h): 195 μg/dish | Monolayer Protein (WI-38 cells [1]; 48 h): 275 μg/dish | Monolayer Protein (WI-38 cells [1]; 72 h): 345 μg/dish | time to resumed growth after removal of fusaric acid (WI-38 cells [1]; WI-38, 30 hours in 500 μM): 125 h | decrease in cell number after removal of fusaric acid (WI-38 cells [1]; WI-38, 30 hours in 500 μM, then 4 days in normal media): 30% | cells surviving after removal of fusaric acid (WI-38 cells [1]; WI-38, remaining cells after 30 hours in 500 μM): > 95% | % Survival (WI-38 cells [2]; WI-38, confluent cells, 48 h): 100% | % Survival (WI-38 cells [2]; WI-38, logarithmic growth, 78 h): 26% | cytotoxicity in LoVo cells (LoVo cells [3]; 1 mM fusaric acid, by 24 hours): extensive cytotoxicity | inhibition at 500 µM (LoVo cells [3]; Homo sapiens, LoVo, 24 h, read-out: inhibition of DNA synthesis): 100% | decrease in cell number (LoVo cells [3]; LoVo, 500 μM fusaric acid, within 30 hours of treatment): 60% | Monolayer Protein (LoVo cells [3]; LoVo, 24 h): 135 μg/dish | Monolayer Protein (LoVo cells [3]; LoVo, 48 h): 90 μg/dish | Monolayer Protein (LoVo cells [3]; LoVo, 72 h): 101 μg/dish | % Survival (LoVo cells [4]; confluent cells, 48 h): 40% | % Survival (LoVo cells [4]; logarithmic growth, 78 h): 4.5% | time to resumed growth after removal of fusaric acid (KB cells [5]): 27 h | viability at 500 µM (KB cells [6]; Homo sapiens, logarithmically growing, 48 hours, read-out: viable cells): 70% | % Survival (KB cells [6]; confluent cells, 48 h): 95% | inhibition at 500 µM ([7]; Homo sapiens, by 24 hr): 100% | decrease in cell number ([7]; within 30 hours): 65% | cells surviving (MDA-468 cells; MDA-468, confluent, 500 μM fusaric acid, 48 hours): 10% | viable attached cells (MDA-468 cells; MDA-468, logarithmically growing, fusaric acid, 30 hours): less than 20% | cell population surviving (MDA-468 cells; MDA-468, logarithmically growing, fusaric acid, 48 hours): 0.1% | decrease in cell viability (Prostatic adenocarcinoma): approximately 60% | decrease in cell viability (colon carcinoma): approximately 60% | decrease in cell viability (liver adenocarcinoma): approximately 60% | decrease in cell viability (lung adenocarcinoma): approximately 60% | decrease in cell viability (skin carcinoma): approximately 60%
